Source: patent publication US10159254B2, “Weed control methods” (Syngenta Participations AG, priority 2013, dated 2018)
“And” between values parts separate entries of the source, which are not always exact repeats. Identical values can stand only once.

How the values were obtained:
[1] = test system: Velvetleaf (Abutilon theophrasti); experiment: Greenhouse weed control: HPPD inhibitors with or without Sequestrene 138Fe, velvetleaf; format: in vivo; conditions: percent velvetleaf control 19 DAT
Description: Effect of Tank Mix Applications of HPPD Inhibitors and Sequestrene® 138Fe on Velvetleaf Control. Percent Control Assessed 19 DAT
(§1) A greenhouse experiment is conducted to determine the effect of chelated iron on weed control in the greenhouse. Velvetleaf (Abutilon theophrasti) and common waterhemp (Amaranthus rudis) plants are grown in 4×4-inch pots filled with a greenhouse potting mix. When the plants reached the 2 to 3 inch height (2 to 3 leaf stage), they are sprayed with a reduced rate of an HPPD inhibitor alone or in a tank mix combination with Sequestrene 138Fe at 140 g/ha (equivalent to 8.4 g iron/hectare) or 280 g/ha (equivalent to 16.8 g iron/hectare). […] Observations on percent control are recorded 12, 19, and 25 days after treatment.

[2] = test system: common waterhemp (Amaranthus rudis); experiment: Greenhouse weed control: HPPD inhibitors with or without Sequestrene 138Fe, common waterhemp; format: in vivo; conditions: common waterhemp control 17 DAT
Description: as §1
Effect of Tank Mix Applications of Various HPPD Inhibitors and Sequestrene 138Fe on Common Waterhemp Control. Injury Assessed 17 DAT
An experiment is performed to look at the effect of applying iron chelates on control of Common Waterhemp using HPPD-inhibiting herbicides. Experiment design is analogous to that outlined in Experiment 3 above.

[3] = test system: HPPD-tolerant soybean event SYHT04R; experiment: Glasshouse: post-emergence HPPD herbicide damage with or without Sequestrene 138Fe, 7 DAA; format: in vivo; conditions: isoxaflutole, tembotrione
Description: (§2) Safening of Various HPPD-inhibiting Herbicides in HPPD-tolerant Soybean Events SYHT04R and SYHT0H2
(§3) An experiment is performed to determine whether the addition of chelating iron to the spray formulation can mitigate foliar bleaching injury from the HPPD herbicides mesotrione, bicyclopyrone, tembotrione, isoxaflutole, topramezone and pyrasulfatole when applied post-emergence to the HPPD-tolerant soybean events SYHT04R and SYHT0H2.
(§4) Soybean plants are grown in a glasshouse (24° C. day, 18° C. night; 65% relative humidity; 16 hour photoperiod). Two replicates are utilised in respect of SYHT0H2 (growth stage V1-V3) and three replicates are utilised in respect of SYHT04R (growth stage V1 to V3). Spray applications are applied post-emergence at […]. Herbicide damage was assessed 7 DAA (Days After Application).

[4] = test system: HPPD-tolerant soybean event SYHT0H2; experiment: as above; format: in vivo; conditions: isoxaflutole, tembotrione
Description: as §2, §3, §4

[5] = test system: untransformed clonal tobacco plants (WT); experiment: Wild type tobacco herbicide damage, mesotrione with or without Sequestrene 138; format: in vivo, Nicotiana tabacum cv Samsun (tobacco)
Description: Effect of Iron Chelates in Mitigating Foliar Bleaching Injury from HPPD Inhibiting Herbicides Across Various Transgenic HPPD Tolerant Tobacco Events Over-expressing HPPD Genes from Different Origins
This experiment is carried out to determine whether iron chelates can mitigate the bleaching injury from HPPD inhibiting herbicides across various transgenic HPPD tolerant tobacco events over-expressing HPPD genes from different origins. These experiments are conducted using three distinct HPPD-overexpressing Nicotiana tabacum cv Samsun (tobacco) lines, one over-expressing wheat HPPD, one overexpressing an Avena HPPD and one over-expressing a HPPD from a bacterial source, Pseudomonas florescens. For each transgenic line, five identical clonal plants were sprayed with each herbicide treatment. Two untransformed clonal tobacco plants are also sprayed ([…]) with each herbicide treatment. Assessments are carried out 3, 7 and 14 days after herbicide application.
All scores represent average % herbicide damage. […] An equivalent safening effect is not observed when the same chemical treatments are applied to wild type plants.

[6] = Sequestrene 138Fe 0 g/ha, g ai/ha: mesotrione 26, isoxaflutole 26, bicyclopyrone 50, tembotrione 46, pyrasulfatole 22, topramezone 18
[7] = Sequestrene 138Fe 140 g/ha tank mix, mesotrione 26, isoxaflutole 26 g ai/ha
[8] = Sequestrene 138Fe 1000 g/ha, g ai/ha: mesotrione 200, bicyclopyrone, pyrasulfatole 100, topramazone 50
[9] = Sequestrene 138Fe 1000 g/ha, g ai/ha: mesotrione 800, bicyclopyrone, pyrasulfatole 400, topramazone 200
[10] = no Sequestrene 138Fe, g ai/ha: mesotrione 200, bicyclopyrone, pyrasulfatole 100, topramazone 50
[11] = no Sequestrene 138Fe, g ai/ha: mesotrione 800, bicyclopyrone, pyrasulfatole 400, topramazone 200

CS(=O)(=O)c1ccc(C(=O)C2C(=O)CCCC2=O)c([N+](=O)[O-])c1 [Mesotrione, mesotrione]
% Injury [1, 6]: 100% | % Injury [1, 7]: 100% | % Injury [2, 6]: 77% | % Injury [2, 7]: 78% | Herbicide damage SYHT04R [3, 8]: 2 | Herbicide damage SYHT04R [3, 9]: 17 | Herbicide damage SYHT04R [3, 10]: 8 | Herbicide damage SYHT04R [3, 11]: 32 | Herbicide damage SYHT0H2 [4, 8]: 3 | Herbicide damage SYHT0H2 [4, 9]: 18 | Herbicide damage SYHT0H2 [4, 10]: 13 | Herbicide damage SYHT0H2 [4, 11]: 23 | % herbicide damage ([5]; Trt 1: mesotrione 50 gai/ha alone, 3DAA): 60% and 65% | % herbicide damage ([5]; Trt 1: mesotrione 50 gai/ha alone, 7DAA): 80% | % herbicide damage ([5]; Trt 1: mesotrione 50 gai/ha alone, 14DAA): 85% | % herbicide damage ([5]; Trt 2: mesotrione 100 gai/ha alone, 3DAA): 70% | % herbicide damage ([5]; Trt 2: mesotrione 100 gai/ha alone, 7DAA): 80% | % herbicide damage ([5]; Trt 2: mesotrione 100 gai/ha alone, 14DAA): 85% and 90% | % herbicide damage ([5]; Trt 3: mesotrione 150 gai/ha alone, 3DAA): 55% and 60% | % herbicide damage ([5]; Trt 3: mesotrione 150 gai/ha alone, 7DAA): 80% | % herbicide damage ([5]; Trt 3: mesotrione 150 gai/ha alone, 14DAA): 85% | % herbicide damage ([5]; Trt 4: mesotrione 50 gai/ha + Sequestrene 138 1000 g/ha, 3DAA): 50% | % herbicide damage ([5]; Trt 4: mesotrione 50 gai/ha + Sequestrene 138 1000 g/ha, 7DAA): 80% | % herbicide damage ([5]; Trt 4: mesotrione 50 gai/ha + Sequestrene 138 1000 g/ha, 14DAA): 70% and 75% | % herbicide damage ([5]; Trt 5: mesotrione 100 gai/ha + Sequestrene 138 1000 g/ha, 3DAA): 60% | % herbicide damage ([5]; Trt 5: mesotrione 100 gai/ha + Sequestrene 138 1000 g/ha, 7DAA): 80% | % herbicide damage ([5]; Trt 5: mesotrione 100 gai/ha + Sequestrene 138 1000 g/ha, 14DAA): 75% and 85% | % herbicide damage ([5]; Trt 6: mesotrione 150 gai/ha + Sequestrene 138 1000 g/ha, 3DAA): 60% | % herbicide damage ([5]; Trt 6: mesotrione 150 gai/ha + Sequestrene 138 1000 g/ha, 7DAA): 80% | % herbicide damage ([5]; Trt 6: mesotrione 150 gai/ha + Sequestrene 138 1000 g/ha, 14DAA): 85% | % herbicide damage ([5]; Trt 7: mesotrione 200 gai/ha alone, 3DAA): 60% | % herbicide damage ([5]; Trt 7: mesotrione 200 gai/ha alone, 7DAA): 80% | % herbicide damage ([5]; Trt 7: mesotrione 200 gai/ha alone, 14DAA): 85% | % herbicide damage ([5]; Trt 8: mesotrione 300 gai/ha alone, 3DAA): 65% | % herbicide damage ([5]; Trt 8: mesotrione 300 gai/ha alone, 7DAA): 80% | % herbicide damage ([5]; Trt 8: mesotrione 300 gai/ha alone, 14DAA): 90% and 85% | % herbicide damage ([5]; Trt 9: mesotrione 400 gai/ha alone, 3DAA): 55% and 60% | % herbicide damage ([5]; Trt 9: mesotrione 400 gai/ha alone, 7DAA): 80% | % herbicide damage ([5]; Trt 9: mesotrione 400 gai/ha alone, 14DAA): 85% | % herbicide damage ([5]; Trt 10: mesotrione 200 gai/ha + Sequestrene 138 1000 g/ha, 3DAA): 55% and 60% | % herbicide damage ([5]; Trt 10: mesotrione 200 gai/ha + Sequestrene 138 1000 g/ha, 7DAA): 80% | % herbicide damage ([5]; Trt 10: mesotrione 200 gai/ha + Sequestrene 138 1000 g/ha, 14DAA): 85% | % herbicide damage ([5]; Trt 11: mesotrione 300 gai/ha + Sequestrene 138 1000 g/ha, 3DAA): 50% and 60% | % herbicide damage ([5]; Trt 11: mesotrione 300 gai/ha + Sequestrene 138 1000 g/ha, 7DAA): 80% | % herbicide damage ([5]; Trt 11: mesotrione 300 gai/ha + Sequestrene 138 1000 g/ha, 14DAA): 90% and 85% | % herbicide damage ([5]; Trt 12: mesotrione 400 gai/ha + Sequestrene 138 1000 g/ha, 3DAA): 55% and 60% | % herbicide damage ([5]; Trt 12: mesotrione 400 gai/ha + Sequestrene 138 1000 g/ha, 7DAA): 80% | % herbicide damage ([5]; Trt 12: mesotrione 400 gai/ha + Sequestrene 138 1000 g/ha, 14DAA): 90% and 85% | % herbicide damage ([5]; Trt 13: mesotrione 400 gai/ha alone, 3DAA): 50% and 55% | % herbicide damage ([5]; Trt 13: mesotrione 400 gai/ha alone, 7DAA): 80% | % herbicide damage ([5]; Trt 13: mesotrione 400 gai/ha alone, 14DAA): 95% and 90% | % herbicide damage ([5]; Trt 14: mesotrione 500 gai/ha alone, 3DAA): 55% and 60% | % herbicide damage ([5]; Trt 14: mesotrione 500 gai/ha alone, 7DAA): 80% | % herbicide damage ([5]; Trt 14: mesotrione 500 gai/ha alone, 14DAA): 85% | % herbicide damage ([5]; Trt 15: mesotrione 600 gai/ha alone, 3DAA): 55% | % herbicide damage ([5]; Trt 15: mesotrione 600 gai/ha alone, 7DAA): 80% | % herbicide damage ([5]; Trt 15: mesotrione 600 gai/ha alone, 14DAA): 85% | % herbicide damage ([5]; Trt 16: mesotrione 400 gai/ha + Sequestrene 138 1000 g/ha, 3DAA): 60% and 55% | % herbicide damage ([5]; Trt 16: mesotrione 400 gai/ha + Sequestrene 138 1000 g/ha, 7DAA): 80% | % herbicide damage ([5]; Trt 16: mesotrione 400 gai/ha + Sequestrene 138 1000 g/ha, 14DAA): 90% and 95% | % herbicide damage ([5]; Trt 17: mesotrione 500 gai/ha + Sequestrene 138 1000 g/ha, 3DAA): 50% and 60% | % herbicide damage ([5]; Trt 17: mesotrione 500 gai/ha + Sequestrene 138 1000 g/ha, 7DAA): 80% | % herbicide damage ([5]; Trt 17: mesotrione 500 gai/ha + Sequestrene 138 1000 g/ha, 14DAA): 90% | % herbicide damage ([5]; Trt 18: mesotrione 600 gai/ha + Sequestrene 138 1000 g/ha, 3DAA): 55% | % herbicide damage ([5]; Trt 18: mesotrione 600 gai/ha + Sequestrene 138 1000 g/ha, 7DAA): 80% | % herbicide damage ([5]; Trt 18: mesotrione 600 gai/ha + Sequestrene 138 1000 g/ha, 14DAA): 90% and 85%
